In patent publication US20170029839A1, “METHOD FOR IMPROVING CROP PRODUCTIVITY” (priority 2013, published 2017):

Key:
[1] = test system: enzyme encoded by SDG8i (SL-UGT); experiment: UGT enzyme assay (coupled pyruvate kinase/lactate dehydrogenase, NADH absorbance at 340 nm) with N. benthamiana leaf protein extract expressing SDG8i; assay type: biochemical, Sporobolus stapfianus
Procedure: UGT was produced in N. benthamiana leaf tissue by transient transfection using a viral-based MagnICON vector system (Icon Genetics GmbH, Halle/Salle, Germany).
Briefly, the UGT coding sequence was amplified from the SDG8i cDNA (Le et al., 2007) and ligated into the MagnICON plasmid. The plasmid was then cultured in Escherichia coli DH5α (ATCC Catalog No 53868) and electroporated into Agrobacterium tumefaciens LBA4404). Subsequently, Nicotiana benthamiana leaves were covered in aluminium foil for 3 days before being co-infiltrated with the plasmid and the apoplast-targeting and intergrase modules of the MagnICON system (Marillonnet et al. 2005). Leaves were then harvested 5 days after the co-infiltration and homogenised in ice-cold protein extraction buffer. Following removal of the insoluble material by centrifugation at 13,000 rpm at 4° C. for 5 minutes, protein assays were carried out with Bio-Rad Protein Assay Dye (Bio-Rad Laboratories Inc, Hercules, Calif., United States of America) using bovine serum albumin (BSA) as reference. Protein extracts were analysed by SDS-PAGE using the standard methods described by Sambrook et al. (1989).
UGT activity was measured using a coupled assay with pyruvate kinase and lactate dehydrogenase with the reaction rate monitored by the change in NADH absorbance at 340 nm (Jackson et al. 2001). Activity in millikatals kg^−1 was calculated using the extinction coefficient […] for NADH. The background activity of the extracts, monitored by the measurement of the rate without substrate addition, was subtracted from the reaction rate.
To investigate the catalytic function of the enzyme encoded by the SDG8i cDNA, the glucosyltransferase activity of N. benthamiana leaf protein extracts infiltrated with a CaMV 35S promoter driven SDG8i construct was tested against a number of substrates and compared with activity in extracts infiltrated with a vector-only control. The assay utilised a linked enzymic reaction as described in the Materials and Methods. […]

[2] = test system: Orobanche seeds; experiment: Orobanche germination assay; assay type: in vivo; details: 0.6 ml aqueous solution 0.0001 mg/1, 7 days at 18-20° C. in the dark; seeds with emerged radicle; water control 11%
Procedure: Orobanche seeds were surface sterilised with 2% sodium hypochlorite containing 0.02% (v/v) of polysorbate 20 surfactant (Tween 20™; Sigma-Aldrich Co LLC, St Louis, Mo., United States of America) for 5 min then rinsed (5×) with sterile ddH2O and dried for 30 min in a laminar air flow cabinet. Subsequently, between 50 and 100 seeds were spread on a sterile […] glass fibre disk and placed in petri dishes (9 cm diameter) lined with filter paper wetted with 3 mL of ddH2O. 1 ml of gibberellic acid (GA3) (30 mg/L) was applied to the seeds and the petri dishes then sealed with parafilm and incubated at 18-20° C. in the dark for preconditioning. After 7 days, surface-sterilised seeds of Arabidopsis W/T, SDG8i transgenics, sorghum and & stapfianus were placed on 5 cm glass microfiber disks and incubated on ¼ MS media with 0.5% sugar and 0.8% agar. For controls, 0.6 ml aqueous solution of synthetic strigolactone analog GR24 (Chiralix B.V., Toernooiveld 1006525 EC Nijmegen, The Netherlands) (0.0001 mg/1) or sterile water was applied to petri dishes with preconditioned Orobanche seeds. The plates were then resealed with parafilm and wrapped with foil and incubated at 18-20° C. for 7 days for germination. Orobanche seed germination was determined under a stereoscopic microscope by counting the number of seeds having an emerged radicle.

[3] = test system: SDG8i promoter-driven GUS reporter (prSDG8i-GUS); experiment: Activation of GUS expression driven by prSDG8i in onion epidermal peels; assay type: cell-based; details: onion peels containing prSDG8i-GUS construct by itself, MJ added to suspension
Excerpt: The promoter sequence (1660 nt) of SDG8i was placed upstream of the GUS reporter gene in a construct designated prSDG8i-GUS. This construct was transiently co-transformed into onion epidermal peels along with the pMDC32:7y or pMDC32:10y constructs which contained either SDG10y or SDG7y under the transcriptional regulation of the CaMV 35S promoter which is constitutively active in onion cells. The formation of a blue precipitate indicates activation of the SDG8i promoter-driven GUS reporter gene by the SDG10y or SDG7y transcription factor constructs.
Agrobacterium-mediated transient transformation was achieved by immersing onion peels in the Agrobacterium suspensions containing these constructs in 10 mM MES buffer (pH 5.5) and 200 μM acetosyringone at 28° C. in the dark for 2/3 days. A 35S:GUS control construct was included in these experiments and the hormone methyl jasmonate (MJ) was also added to some suspensions. After 2 days, the onion peels were soaked in a GUS staining solution and left at 28° C. in the dark. The onion peels were examined every 2 hours to monitor the formation of blue precipitate.

| SMILES | Km ([1]; GR24 as substrate of SDG8i extract, FIG. 1B) [µM] | Vmax ([1]; GR24 as substrate of SDG8i extract, FIG. 1B, method: activity calculated in millikatals kg^-1) | glycosylation activity ([1]; SDG8i extract versus vector-only control, background endogenous NADH oxidase subtracted, FIG. 1A) | Orobanche seed germination [2] [%] | GUS activity [3] |
| --- | --- | --- | --- | --- | --- |
| CC1=CC(O/C=C2/C(=O)OC3c4ccccc4CC23)OC1=O (centres unmarked) [GR24] | 349 | 5.67 | substantial glycosylation activity | 95 |  |
| CC/C=C\CC1C(=O)CCC1CC(=O)OC (centres unmarked) [MJ, methyl jasmonate] |  |  |  |  | elevated |
